In patent US11453632B2, “1-phenyl-2-phenylethane derivative” (KAO CORPORATION, priority 2018, dated 2022):

Legend:
[1] = biological target: T1, ERβ LBD (Homo sapiens, UniProt Q92731); experiment: Ability to bind to ERβ: pBIND-ERβ LBD / GAL4 luciferase reporter in HEK293 cells; type: cell-based; design: key: RLU = firefly luminescence / Renilla luminescence; settings: negative control 0.0118997
T1 construct: host or cells: HEK293
Description: This evaluation system is a system exploiting difference in the sequence of the ligand binding domain (LBD) between ERα and ERβ (J Endocrinol 163: 379-383 (1999)), and enables selective activation of ERβ to be evaluated by determining the binding of a ligand to LBD and the activation of ER.
(§1) A human kidney-derived cell line HEK293 was cultured (37° C., 5% CO2) in Dulbecco's modified Eagle medium (hereinafter, abbreviated to DMEM) containing 10% (v/v) fetal bovine serum (FBS) and penicillin/streptomycin.
(§2) 2) Measurement of Binding Activity Against ERs
(§3) This measurement was carried out according to the method described in JP-B-5990058. Specifically, HEK293 cells were inoculated at a cell density of 4.0×10^4 cells/well to a 96-well plate. After 12 hours therefrom, the medium was replaced with a culture solution (DMEM containing 5% (v/v) charcoal-treated serum). The cells were cotransfected with pBIND-ERα for the expression of ERα LBD or pBIND-ERβ for the expression of ERβ LBD (Promega Corp.) and pGL4.35[luc2P/9XGAL4UAS/Hygro](Promega Corp.) using Lipofectamine 2000 (Invitrogen Corp.) according to the protocol attached to the product. 24 hours after transfection, the medium was replaced with a culture solution containing a test sample, followed by culture for another 24 hours. The activity measurement of firefly luciferase (index for the ligand binding activity of ER) and Renilla reniformis luciferase (index for the transfection efficiency of the plasmids) was carried out using Dual-Glo™ Luciferase Assay System (Promega Corp.) according to the attached protocol. The luminescence intensity of the firefly luciferase was divided by the luminescence intensity of the Renilla reniformis luciferase to calculate a relative light unit (RLU).

[2] = biological target: T2, ERα LBD (Homo sapiens, UniProt P03372); experiment: Ability to bind to ERα: pBIND-ERα LBD / GAL4 luciferase reporter in HEK293 cells; type: cell-based; design: key: firefly luciferase / Renilla luciferase luminescence ratio; settings: negative control 0.00847035
T2 construct: host or cells: HEK293
T2 sequence (P03372 311-547 limits assumed): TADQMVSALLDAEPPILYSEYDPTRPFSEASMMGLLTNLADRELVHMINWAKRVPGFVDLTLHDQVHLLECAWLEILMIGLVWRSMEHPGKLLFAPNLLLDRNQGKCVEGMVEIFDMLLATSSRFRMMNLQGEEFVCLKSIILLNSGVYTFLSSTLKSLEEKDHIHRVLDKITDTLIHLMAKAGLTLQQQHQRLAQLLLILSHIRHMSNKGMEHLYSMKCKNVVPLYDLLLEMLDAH
Description: as §1, §2
as §3, with “Specifically,” for “This measurement was carried out according to the method described in JP-B-5990058. Specifically,”

T1 sequence (Q92731 264-498 limits assumed): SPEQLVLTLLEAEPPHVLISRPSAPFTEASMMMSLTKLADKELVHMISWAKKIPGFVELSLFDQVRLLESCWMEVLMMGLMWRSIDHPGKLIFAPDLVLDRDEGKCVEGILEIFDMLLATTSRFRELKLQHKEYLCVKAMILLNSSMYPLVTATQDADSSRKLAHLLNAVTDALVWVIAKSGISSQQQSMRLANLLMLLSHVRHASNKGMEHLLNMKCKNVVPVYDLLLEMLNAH

| Compound | relative light unit (RLU), ligand binding activity ERβ ([1]; 1 nM) | relative light unit (RLU), ligand binding activity ERβ ([1]; 10 nM) | relative light unit (RLU), ligand binding activity ERβ ([1]; 100 nM) | relative light unit (RLU), ligand binding activity ERα ([2]; 1 nM) | relative light unit (RLU), ligand binding activity ERα ([2]; 10 nM) | relative light unit (RLU), ligand binding activity ERα ([2]; 100 nM) | relative light unit (RLU), ligand binding activity ERβ ([1]; 0.01 nM) | relative light unit (RLU), ligand binding activity ERβ ([1]; 0.1 nM) | relative light unit (RLU), ligand binding activity ERα ([2]; 0.01 nM) | relative light unit (RLU), ligand binding activity ERα ([2]; 0.1 nM) |
| --- | --- | --- | --- | --- | --- | --- | --- | --- | --- | --- |
| CCC(C)C(Cc1ccc(O)cc1)c1ccc(O)cc1 (stereo not drawn) [Compound 6, 4,4′-(3-methylpentane-1,2-diyl)diphenol] | 0.01046 | 0.02031 | 0.2041 | 0.008097 | 0.01098 | 0.01183 |  |  |  |  |
| CC=CC(Cc1ccc(O)cc1)c1ccc(O)cc1 (stereo not drawn) [Compound 5, 4,4′-(pent-3-ene-1,2-diyl)diphenol] | 0.9744 | 1.153 | 1.216 | 0.006803 | 0.008307 | 0.319 | 0.01699 | 0.1395 |  |  |
| Oc1ccc(CC(c2ccc(O)cc2)c2ccn[nH]2)cc1 (stereo not drawn) [Compound 12, 4,4′-(1-(1H-pyrazol-5-yl)ethane-1,2-diyl)diphenol] | 0.03073 | 0.02066 | 0.026 | 0.01753 | 0.01191 | 0.008685 | 0.01836 | 0.01732 | 0.006803 | 0.02077 |
| Oc1ccc(CC(c2ccc(O)cc2)C2CC2)cc1 (stereo not drawn) [Compound 1, 4,4′-(1-cyclopropylethane-1,2-diyl)diphenol] | 0.04726 | 0.7801 | 0.674 | 0.01123 | 0.01001 | 0.03514 |  |  |  |  |
| O=C(NC(Cc1ccc(O)cc1)c1ccc(O)cc1)C(F)(F)F (stereo not drawn) [Compound 10, N-(1,2-bis(4-hydroxyphenyl)ethyl)-2,2,2-trifluoroacetamide] | 0.01539 | 0.0134 | 0.2211 | 0.008272 | 0.0163 | 0.01156 |  |  |  |  |
| Oc1ccc(CC(c2ccc(O)cc2)c2cnco2)cc1 (stereo not drawn) [Compound 13, 4,4′-(1-(oxazol-5-yl)ethane-1,2-diyl)diphenol] | 0.02471 | 0.04313 | 0.8322 | 0.01285 | 0.01611 | 0.01431 | 0.01293 | 0.01887 | 0.01362 | 0.006796 |
| Oc1ccc(CC(C=CF)c2ccc(O)cc2)cc1 (stereo not drawn) [Compound 8, 4,4′-(4-fluorobut-3-ene-1,2-diyl)diphenol] | 0.9979 | 1.068 | 1.031 | 0.007223 | 0.1184 | 0.423 | 0.01223 | 0.5254 | 0.005812 | 0.005926 |

Other lines, results leading:

| relative light unit (RLU), ligand binding activity ERβ ([1]; 1 nM) | relative light unit (RLU), ligand binding activity ERβ ([1]; 10 nM) | relative light unit (RLU), ligand binding activity ERβ ([1]; 100 nM) | relative light unit (RLU), ligand binding activity ERα ([2]; 1 nM) | relative light unit (RLU), ligand binding activity ERα ([2]; 10 nM) | relative light unit (RLU), ligand binding activity ERα ([2]; 100 nM) | relative light unit (RLU), ligand binding activity ERβ ([1]; 0.01 nM) | relative light unit (RLU), ligand binding activity ERβ ([1]; 0.1 nM) | relative light unit (RLU), ligand binding activity ERα ([2]; 0.01 nM) | relative light unit (RLU), ligand binding activity ERα ([2]; 0.1 nM) | Compound |
| --- | --- | --- | --- | --- | --- | --- | --- | --- | --- | --- |
| 1.819 | 1.997 | 2.261 | 0.122 | 2.2626 | 3.229 | 0.07422 | 0.4259 | 0.0398 | 0.04255 | Oc1ccc(C(C=C(Cl)Cl)Cc2c(F)cc(O)cc2F)cc1 (stereo not drawn) [Compound 18-Cl, 4-(4,4-dichloro-2-(4-hydroxyphenyl)but-3-en-1-yl)-3,5-difluorophenol] |
| 0.02069 | 0.08851 | 0.9946 | 0.02004 | 0.01493 | 0.02047 | 0.02708 | 0.02188 | 0.01031 | 0.01495 | Oc1ccc(CC(c2ccc(O)cc2)c2ncon2)cc1 (stereo not drawn) [Compound 14, 4,4′-(1-(1,2,4-oxadiazol-3-yl)ethane-1,2-diyl)diphenol] |
| 1.22 | 1.682 | 2.029 | 0.05395 | 0.92 | 2.707 | 0.04108 | 0.116 | 0.03467 | 0.03125 | Oc1ccc(CC(C=C(Cl)Cl)c2ccc(O)cc2F)c(F)c1 (stereo not drawn) [Compound 17-Cl, 4,4′-(4,4-dichlorobut-3-ene-1,2-diyl)bis(3-fluorophenol)] |
| 0.01759 | 0.06729 | 0.8625 | 0.01714 | 0.0182 | 0.0245 | 0.0173 | 0.02216 | 0.01424 | 0.01773 | Oc1ccc(CC(c2ccc(O)cc2)c2cocn2)cc1 (stereo not drawn) [Compound 16, 4,4′-(1-(oxazol-4-yl)ethane-1,2-diyl)diphenol] |
